The values that follow come from PubChem BioAssay (NCI).

Test systems include A498 renal; CAKI-1 renal; HOP-92 NSCLC; SK-MEL-5 melanoma; SK-OV-3 ovarian; U251 CNS; BT-549 breast; MDA-MB-231 breast; NCI/ADR-RES ovarian; PC-3 prostate.
Experiment in all cases: growth of human tumour cells (NCI), 48 h

Where “and” joins values, the source holds several entries; their conditions need not be identical. Identical values can stand only once.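 Grown in 96-well plates, cells were treated for 48 hours with each compound at five concentrations. Insufficient inhibition: endpoint recorded as highest concentration tested. At the GI50, growth is halved. TGI: concentration producing complete growth inhibition.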

For `COc1c(O)c(C=O)c2c(O)c(-c3c(C)cc4c(C(C)C)c(OC)c(O)c(C=O)c4c3O)c(C)cc2c1C(C)C`, the TGI in the assay with A498 renal was 24.7 µM; with CAKI-1 renal it was 16.9 µM; in the assay on HOP-92 NSCLC, 8.31 µM; with SK-MEL-5 melanoma, 22.7 µM; in the assay on SK-OV-3 ovarian, 14.2 µM; in the assay with U251 CNS, 12.2 µM.
Regarding `O=S(Nc1ccccc1)c1ccc(N2CCOCC2)cc1` (centres undefined), the TGI in the assay with BT-549 breast, with MDA-MB-231 breast, with NCI/ADR-RES ovarian, in the assay with SK-MEL-5 melanoma and with U251 CNS was over 100 µM each time.
Take `Cc1ccc(OCC2OC(n3cnc4c(Cl)nc(N)nc43)CC2Oc2ccc(C)cc2)cc1` (centres undefined): the TGI in the assay with A498 renal is over 100 µM; in the assay on BT-549 breast it was over 100 µM; with CAKI-1 renal, 20.3 µM; with HOP-92 NSCLC, 51.7 µM; in the assay with MDA-MB-231 breast, over 100 µM; in the assay with NCI/ADR-RES ovarian, over 75.5 µM. Further, the TGI is over 58.5 µM in the assay on PC-3 prostate, over 100 µM in the assay with SK-MEL-5 melanoma, over 100 µM with SK-OV-3 ovarian and over 100 µM in the assay with U251 CNS.
Regarding `CC1CCCC2(CC[N+](C)(CCC[N+](C)(C)C)CC2)C1` (centres undefined), the TGI with A498 renal, in the assay with BT-549 breast, in the assay on CAKI-1 renal, in the assay with HOP-92 NSCLC, in the assay on MDA-MB-231 breast and in the assay on NCI/ADR-RES ovarian was over 100 µM each time. The TGI in the assay on PC-3 prostate, in the assay with SK-MEL-5 melanoma, in the assay on SK-OV-3 ovarian and with U251 CNS was over 100 µM each time.
Consider `COc1ccc2c3c1OC1C(=O)C=CC4(CC2)N(C)CCC314` (centres undefined), for which the TGI in the assay with A498 renal is 58.7 µM; in the assay on BT-549 breast, 90.8 µM; with CAKI-1 renal it was over 100 µM; in the assay on HOP-92 NSCLC it was over 100 µM; in the assay on MDA-MB-231 breast, over 100 µM; with NCI/ADR-RES ovarian, over 100 µM. The TGI in the assay on PC-3 prostate is over 100 µM; in the assay with SK-MEL-5 melanoma it was 24.4 µM; with SK-OV-3 ovarian, over 100 µM; in the assay on U251 CNS it was 53 µM.
For the compound `O=[N+]([O-])c1ccc2sc(C=Nc3cnccn3)cc2c1`, the TGI in the assay on A498 renal was 86 µM; with BT-549 breast, over 100 µM; in the assay on CAKI-1 renal, over 100 µM; in the assay with HOP-92 NSCLC, over 100 µM; in the assay with MDA-MB-231 breast, over 100 µM; with NCI/ADR-RES ovarian it was over 100 µM. Besides, the TGI with PC-3 prostate, with SK-MEL-5 melanoma, with SK-OV-3 ovarian and in the assay on U251 CNS was over 100 µM in each case.
As to `COP(=O)(OC)C(Cc1cn(C(C)=O)c2ccccc12)C(=O)O` (centres undefined), the TGI in the assay on A498 renal, in the assay on CAKI-1 renal, with HOP-92 NSCLC, in the assay on MDA-MB-231 breast, in the assay with NCI/ADR-RES ovarian and in the assay with PC-3 prostate was over 100 µM each time. Also, the TGI in the assay on SK-MEL-5 melanoma, with SK-OV-3 ovarian and in the assay on U251 CNS was over 100 µM in each case.
Regarding `C/C=C/c1cc(=O)c([C@@H]2OC(=O)c3cc(OC)cc(OC)c32)co1`, the TGI with CAKI-1 renal, with HOP-92 NSCLC and with SK-MEL-5 melanoma was over 100 µM throughout.
As for `O=c1[nH]nc(-c2ccccc2)n1/N=C\c1ccccc1`, the TGI in the assay with A498 renal, in the assay on BT-549 breast, in the assay with CAKI-1 renal, with HOP-92 NSCLC, in the assay with MDA-MB-231 breast and in the assay on NCI/ADR-RES ovarian was over 100 µM in each case. Moreover, the TGI in the assay on PC-3 prostate, with SK-MEL-5 melanoma and in the assay on U251 CNS was over 100 µM throughout.
Regarding `O=C1CCCCC/C1=C\c1ccc([N+](=O)[O-])cc1`, the TGI is over 100 µM in the assay on A498 renal; 54.3 µM in the assay on BT-549 breast; 59.9 µM with CAKI-1 renal; 37.9 µM with MDA-MB-231 breast; over 100 µM in the assay on NCI/ADR-RES ovarian; over 100 µM with PC-3 prostate. The TGI in the assay on SK-MEL-5 melanoma was 43.7 µM; in the assay on SK-OV-3 ovarian, over 100 µM; with U251 CNS it was over 100 µM.
As to `CCCC(=O)NC(Nc1ccc(S(=O)(=O)Nc2cc(C)on2)cc1)(C(=O)OCC)C(F)(F)F` (centres undefined), the TGI in the assay on BT-549 breast, in the assay on CAKI-1 renal, with HOP-92 NSCLC, in the assay with MDA-MB-231 breast, in the assay on NCI/ADR-RES ovarian and in the assay on PC-3 prostate was over 100 µM in each case. Besides, the TGI in the assay with SK-MEL-5 melanoma, in the assay on SK-OV-3 ovarian and with U251 CNS was over 100 µM in each case.
As for `Cc1cc(S(=O)(=O)N/C(=C(\C#N)C(=O)c2ccc(Cl)cc2)[n+]2ccc(N(C)C)cc2)c([S-])cc1Cl`, the TGI in the assay on A498 renal is 56.6 µM; in the assay on BT-549 breast, over 100 µM; in the assay with CAKI-1 renal it was over 100 µM; in the assay on MDA-MB-231 breast it was over 100 µM; with NCI/ADR-RES ovarian it was over 100 µM; with PC-3 prostate, over 100 µM. Further, the TGI in the assay with SK-MEL-5 melanoma was over 100 µM; in the assay on SK-OV-3 ovarian, 96.7 µM; in the assay with U251 CNS, over 100 µM.
Consider `NCCCN(CCCN(C(=O)Nc1ccccc1)c1ccccc1)C(=O)Nc1ccccc1`, for which the TGI in the assay with A498 renal was over 100 µM; in the assay with BT-549 breast it was over 100 µM; in the assay on HOP-92 NSCLC it was 92 µM; in the assay on MDA-MB-231 breast, over 100 µM; with NCI/ADR-RES ovarian, over 100 µM; in the assay with PC-3 prostate it was over 100 µM. The values for the TGI in the assay with SK-MEL-5 melanoma, in the assay on SK-OV-3 ovarian and with U251 CNS were 40.7 µM, over 100 µM and over 100 µM, respectively.
On to `[Cl][Sn]([c]1ccccc1)([c]1ccccc1)[c]1ccccc1`, for which the GI50 with A498 renal was 0.165 µM and 0.0456 µM; in the assay on BT-549 breast, 0.282 µM; in the assay on HOP-92 NSCLC, 0.0939 µM and 0.122 µM and 0.0139 µM; in the assay with MDA-MB-231 breast, 0.216 µM; in the assay on PC-3 prostate it was 0.327 µM; in the assay with SK-MEL-5 melanoma, 0.166 µM and 0.114 µM and 0.0408 µM. Besides, the GI50 in the assay with SK-OV-3 ovarian was 0.239 µM and 0.178 µM. For the same compound, the TGI is 0.523 µM and 0.159 µM with A498 renal; 0.968 µM in the assay on BT-549 breast; 0.54 µM in the assay on MDA-MB-231 breast; 1.02 µM in the assay with PC-3 prostate; 0.325 µM and 0.242 µM and 0.158 µM in the assay on SK-MEL-5 melanoma; 0.696 µM and 0.335 µM with SK-OV-3 ovarian.
Consider `Cc1ccc(S(=O)(=O)n2c3ccc(Br)cc3c3nc4ccccc4nc32)cc1`, for which the TGI in the assay on A498 renal, in the assay with CAKI-1 renal, in the assay on HOP-92 NSCLC, in the assay with MDA-MB-231 breast, in the assay with NCI/ADR-RES ovarian and with PC-3 prostate was over 100 µM throughout. Besides, the TGI in the assay on SK-MEL-5 melanoma and in the assay with U251 CNS was over 100 µM each time.
